# From PubChem BioAssay AID1259407 (Chemical Carcinogenesis Research Information System (CCRIS), 2018)
# Active and inactive are the calls of the source. The rule behind the calls is not given here.
# Test system: CCRIS mutagenicity, Ames/micronucleus/aberration tests
# Assay: CCRIS mutagenicity studies
# Settings: Test System: AMES SALMONELLA TYPHIMURIUM
smiles,measurement,setting,value
O=C(O)CCCc1c[nH]c2ccccc12,mutagenic call,"Strain/Indicator: TA97A, Metabolic Activation: NONE, Method: STANDARD PLATE",inactive; negative
same,mutagenic call,"Strain/Indicator: TA97A, Metabolic Activation: RAT, LIVER, S-9, AROCLOR 1254, Method: STANDARD PLATE",inactive; negative
same,mutagenic call,"Strain/Indicator: TA98, Metabolic Activation: NONE, Method: STANDARD PLATE",inactive; negative
same,mutagenic call,"Strain/Indicator: TA98, Metabolic Activation: RAT, LIVER, S-9, AROCLOR 1254, Method: STANDARD PLATE",inactive; negative
same,mutagenic call,"Strain/Indicator: TA100, Metabolic Activation: NONE, Method: STANDARD PLATE",inactive; negative
same,mutagenic call,"Strain/Indicator: TA100, Metabolic Activation: RAT, LIVER, S-9, AROCLOR 1254, Method: STANDARD PLATE",inactive; negative
same,mutagenic call,"Strain/Indicator: TA1535, Metabolic Activation: NONE, Method: STANDARD PLATE",inactive; negative
same,mutagenic call,"Strain/Indicator: TA1535, Metabolic Activation: RAT, LIVER, S-9, AROCLOR 1254, Method: STANDARD PLATE",inactive; negative
same,mutagenic call,"Strain/Indicator: TA1537, Metabolic Activation: NONE, Method: STANDARD PLATE",inactive; negative
same,mutagenic call,"Strain/Indicator: TA1537, Metabolic Activation: RAT, LIVER, S-9, AROCLOR 1254, Method: STANDARD PLATE",inactive; negative
same,mutagenic call,"Strain/Indicator: TA1538, Metabolic Activation: NONE, Method: STANDARD PLATE",inactive; negative
same,mutagenic call,"Strain/Indicator: TA1538, Metabolic Activation: RAT, LIVER, S-9, AROCLOR 1254, Method: STANDARD PLATE",inactive; negative
c1ccc(CSCc2ccccc2)cc1,mutagenic call,"Strain/Indicator: TA97, Metabolic Activation: HAMSTER, LIVER, S-9, AROCLOR 1254 (10%), Method: PREINCUBATION",inactive; negative
same,mutagenic call,"Strain/Indicator: TA97, Metabolic Activation: HAMSTER, LIVER, S-9, AROCLOR 1254 (30%), Method: PREINCUBATION",inactive; negative
same,mutagenic call,"Strain/Indicator: TA97, Metabolic Activation: NONE, Method: PREINCUBATION",inactive; negative
same,mutagenic call,"Strain/Indicator: TA97, Metabolic Activation: RAT, LIVER, S-9, AROCLOR 1254 (10%), Method: PREINCUBATION",inactive; negative
same,mutagenic call,"Strain/Indicator: TA97, Metabolic Activation: RAT, LIVER, S-9, AROCLOR 1254 (30%), Method: PREINCUBATION",inactive; negative
same,mutagenic call,"Strain/Indicator: TA98, Metabolic Activation: HAMSTER, LIVER, S-9, AROCLOR 1254 (10%), Method: PREINCUBATION",inactive; negative
same,mutagenic call,"Strain/Indicator: TA98, Metabolic Activation: HAMSTER, LIVER, S-9, AROCLOR 1254 (30%), Method: PREINCUBATION",inactive; negative
same,mutagenic call,"Strain/Indicator: TA98, Metabolic Activation: NONE, Method: PREINCUBATION",inactive; negative
same,mutagenic call,"Strain/Indicator: TA98, Metabolic Activation: RAT, LIVER, S-9, AROCLOR 1254 (10%), Method: PREINCUBATION",inactive; negative
same,mutagenic call,"Strain/Indicator: TA98, Metabolic Activation: RAT, LIVER, S-9, AROCLOR 1254 (30%), Method: PREINCUBATION",inactive; negative
same,mutagenic call,"Strain/Indicator: TA100, Metabolic Activation: HAMSTER, LIVER, S-9, AROCLOR 1254 (10%), Method: PREINCUBATION",inactive; negative
same,mutagenic call,"Strain/Indicator: TA100, Metabolic Activation: HAMSTER, LIVER, S-9, AROCLOR 1254 (30%), Method: PREINCUBATION",inactive; negative
same,mutagenic call,"Strain/Indicator: TA100, Metabolic Activation: NONE, Method: PREINCUBATION",inactive; negative
same,mutagenic call,"Strain/Indicator: TA100, Metabolic Activation: RAT, LIVER, S-9, AROCLOR 1254 (10%), Method: PREINCUBATION",inactive; negative
same,mutagenic call,"Strain/Indicator: TA100, Metabolic Activation: RAT, LIVER, S-9, AROCLOR 1254 (30%), Method: PREINCUBATION",inactive; negative
same,mutagenic call,"Strain/Indicator: TA1535, Metabolic Activation: HAMSTER, LIVER, S-9, AROCLOR 1254 (10%), Method: PREINCUBATION",inactive; negative
same,mutagenic call,"Strain/Indicator: TA1535, Metabolic Activation: HAMSTER, LIVER, S-9, AROCLOR 1254 (30%), Method: PREINCUBATION",inactive; negative
same,mutagenic call,"Strain/Indicator: TA1535, Metabolic Activation: NONE, Method: PREINCUBATION",inactive; negative
same,mutagenic call,"Strain/Indicator: TA1535, Metabolic Activation: RAT, LIVER, S-9, AROCLOR 1254 (10%), Method: PREINCUBATION",inactive; negative
same,mutagenic call,"Strain/Indicator: TA1535, Metabolic Activation: RAT, LIVER, S-9, AROCLOR 1254 (30%), Method: PREINCUBATION",inactive; negative
NCCc1cc(O)c(O)cc1O,mutagenic call,"Strain/Indicator: TA102, Metabolic Activation: NONE, Method: STANDARD PLATE",active; positive
same,mutagenic call,"Strain/Indicator: TA104, Metabolic Activation: NONE, Method: STANDARD PLATE",active; positive
